The supplement of paper PMC10307832

Tests used:
Assay in all cases: relative viability (nuclei count vs DMSO), 5 days (fraction); higher = more cells survive
[1] = system: NCI-H2405
Procedure, shortened: (§1)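 Five library-drug doses in √10 steps were combined with a fixed anchor-drug dose, or a single drug was given alone, by pin tool to lung cancer cell lines in 1536-well plates the day after seeding. Nuclei were stained and counted after 5 days. Relative viability is the nuclei count in treated wells over that in vehicle wells, taken as the median of duplicate plates.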

[2] = system: EKVX
Procedure, shortened: as §1

[3] = system: RERF-LC-KJ
Procedure, shortened: as §1

[4] = system: NCI-H1734
Procedure, shortened: as §1

[5] = system: HCC-827
Procedure, shortened: as §1

[6] = system: PC-14
Procedure, shortened: as §1

[7] = system: HCC-15
Procedure, shortened: as §1

[8] = system: NCI-H322M
Procedure, shortened: as §1

[9] = system: LK-2
Procedure, shortened: as §1

[10] = system: NCI-H1975
Procedure, shortened: as §1

[11] = system: LCLC-97TM1
Procedure, shortened: as §1

[12] = system: NCI-H2342
Procedure, shortened: as §1

[13] = system: NCI-H1355
Procedure, shortened: as §1

[14] = system: H3255
Procedure, shortened: as §1

[15] = system: CAL-12T
Procedure, shortened: as §1

[16] = system: NCI-H1755
Procedure, shortened: as §1

[17] = system: PC-3 [JPC-3]
Procedure, shortened: as §1

Cc1sc2c(c1C)C(c1ccc(Cl)cc1)=N[C@@H](CC(=O)OC(C)(C)C)c1nnc(C)n1-2 [JQ1] + NC(=O)Nc1cc(-c2cccc(F)c2)sc1C(=O)N[C@H]1CCCNC1 [AZD7762] (partner 0.2 µM)
relative viability ([1]; first compound 0.04 µM): 0.712
relative viability ([1]; first compound 0.4 µM): 0.646
relative viability ([1]; first compound 1.265 µM): 0.586
relative viability ([1]; first compound 4 µM): 0.365
relative viability ([2]; first compound 0.04 µM): 0.721
relative viability ([2]; first compound 0.1265 µM): 0.794
relative viability ([2]; first compound 0.4 µM): 1.03
relative viability ([2]; first compound 1.265 µM): 0.793
relative viability ([2]; first compound 4 µM): 0.455
relative viability ([3]; first compound 0.04 µM): 1.02
relative viability ([3]; first compound 0.1265 µM): 0.803
relative viability ([3]; first compound 0.4 µM): 0.976
relative viability ([3]; first compound 1.265 µM): 0.816
relative viability ([3]; first compound 4 µM): 0.358
relative viability ([4]; first compound 0.04 µM): 0.544
relative viability ([4]; first compound 0.1265 µM): 0.53
relative viability ([4]; first compound 0.4 µM): 0.47
relative viability ([4]; first compound 1.265 µM): 0.281
relative viability ([4]; first compound 4 µM): 0.273
relative viability ([5]; first compound 0.04 µM): 0.292
relative viability ([5]; first compound 0.1265 µM): 0.266
relative viability ([5]; first compound 1.265 µM): 0.233
relative viability ([5]; first compound 4 µM): 0.277
relative viability ([6]; first compound 0.04 µM): 0.267
relative viability ([6]; first compound 0.1265 µM): 0.259
relative viability ([6]; first compound 0.4 µM): 0.207
relative viability ([6]; first compound 1.265 µM): 0.125
relative viability ([6]; first compound 4 µM): 0.0805
relative viability ([7]; first compound 0.04 µM): 1.32
relative viability ([7]; first compound 0.1265 µM): 0.924
relative viability ([7]; first compound 0.4 µM): 0.978
relative viability ([7]; first compound 1.265 µM): 0.512
relative viability ([7]; first compound 4 µM): 0.742
relative viability ([8]; first compound 0.04 µM): 0.532
relative viability ([8]; first compound 0.1265 µM): 0.534
relative viability ([8]; first compound 0.4 µM): 0.44
relative viability ([8]; first compound 1.265 µM): 0.397
relative viability ([8]; first compound 4 µM): 0.437
relative viability ([9]; first compound 0.04 µM): 0.464
relative viability ([9]; first compound 0.1265 µM): 0.388
relative viability ([9]; first compound 0.4 µM): 0.229
relative viability ([9]; first compound 1.265 µM): 0.101
relative viability ([9]; first compound 4 µM): 0.128
relative viability ([10]; first compound 0.04 µM): 0.678
relative viability ([10]; first compound 0.1265 µM): 0.412
relative viability ([10]; first compound 0.4 µM): 0.767
relative viability ([10]; first compound 1.265 µM): 0.526
relative viability ([10]; first compound 4 µM): 0.41
relative viability ([11]; first compound 0.04 µM): 0.269
relative viability ([11]; first compound 0.1265 µM): 0.255
relative viability ([11]; first compound 0.4 µM): 0.268
relative viability ([11]; first compound 1.265 µM): 0.097
relative viability ([11]; first compound 4 µM): 0.0653
relative viability ([12]; first compound 0.04 µM): 0.544
relative viability ([12]; first compound 0.1265 µM): 0.475
relative viability ([12]; first compound 0.4 µM): 0.588
relative viability ([12]; first compound 1.265 µM): 0.465
relative viability ([12]; first compound 4 µM): 0.4
relative viability ([13]; first compound 0.04 µM): 0.747
relative viability ([13]; first compound 0.1265 µM): 0.769
relative viability ([13]; first compound 0.4 µM): 0.705
relative viability ([13]; first compound 1.265 µM): 0.554
relative viability ([13]; first compound 4 µM): 0.406
relative viability ([14]; first compound 0.04 µM): 0.851
relative viability ([14]; first compound 0.1265 µM): 0.67
relative viability ([14]; first compound 0.4 µM): 0.71
relative viability ([14]; first compound 1.265 µM): 0.411
relative viability ([14]; first compound 4 µM): 0.277
relative viability ([15]; first compound 0.04 µM): 0.588
relative viability ([15]; first compound 0.1265 µM): 0.52
relative viability ([15]; first compound 0.4 µM): 0.466
relative viability ([15]; first compound 1.265 µM): 0.365
relative viability ([15]; first compound 4 µM): 0.317
relative viability ([16]; first compound 0.04 µM): 0.533
relative viability ([16]; first compound 0.1265 µM): 0.387
relative viability ([16]; first compound 0.4 µM): 0.565
relative viability ([16]; first compound 1.265 µM): 0.507
relative viability ([16]; first compound 4 µM): 0.433
relative viability ([17]; first compound 0.04 µM): 0.709
relative viability ([17]; first compound 0.1265 µM): 0.849
relative viability ([17]; first compound 0.4 µM): 0.497
relative viability ([17]; first compound 1.265 µM): 0.527
relative viability ([17]; first compound 4 µM): 0.438
